Source: PubChem BioAssay (NCI)
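All cell lines were grown in 96-well plates and treated with compound for 48 hours. TGI denotes the concentration required for complete inhibition of growth.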

Experiments:
Test in all cases: NCI tumour cell line growth inhibition, 48 h
[1] = tested on: HOP-62 NSCLC
[2] = tested on: HOP-92 NSCLC
[3] = tested on: A549 NSCLC
[4] = tested on: NCI-H460 lung
[5] = tested on: SN12C renal
[6] = tested on: DU-145 prostate
[7] = tested on: HS 578T breast
[8] = tested on: A498 renal
[9] = tested on: SK-MEL-2 melanoma
[10] = tested on: RPMI-8226 leukemia
[11] = tested on: NCI-H23 lung
[12] = tested on: U251 CNS

SMILES	TGI [1]	TGI [2]	TGI [3]	TGI [4]	TGI [5]	TGI [6]	TGI [7]	TGI [8]	TGI [9]	TGI [10]	TGI [11]	TGI [12]
O=c1oc2ccc([N+](=O)[O-])cc2cc1Br	> 100 µM	> 100 µM	> 100 µM	> 100 µM	> 100 µM	> 100 µM	> 100 µM	> 100 µM	> 100 µM	> 100 µM	> 100 µM	> 100 µM
NC(=O)C(=CNC(=S)Nc1cccc(C(F)(F)F)c1)C(N)=O	> 100 µM	> 100 µM	> 100 µM	> 100 µM	> 100 µM	> 100 µM	> 100 µM	> 100 µM	> 100 µM	> 100 µM	> 100 µM	> 100 µM
Clc1c2ccccc2nc2c1[nH]c1ccccc12	> 100 µM	> 100 µM	> 100 µM	> 100 µM	> 100 µM	> 100 µM	> 100 µM	> 100 µM	> 100 µM	68.2 µM	> 100 µM	> 100 µM
O=C(N/N=C/C=C/c1ccc([N+](=O)[O-])o1)c1ccc(C(=O)N/N=C/C=C/c2ccc([N+](=O)[O-])o2)cc1	> 100 µM	> 100 µM	> 100 µM	> 88.5 µM	> 54.5 µM	> 73.4 µM	> 100 µM	> 100 µM	> 100 µM	> 32.9 µM	> 100 µM	> 52.8 µM
O=C1CC2SC(COCc3ccccc3)(CCN2Cc2ccccc2)C1 (stereo unspecified)	> 100 µM	> 100 µM	> 100 µM	> 100 µM	> 100 µM	> 100 µM	> 100 µM	> 100 µM	> 100 µM	93.4 µM	> 100 µM	> 100 µM
COc1cc2ccc1OCc1cccc(n1)COc1ccc(cc1OC)C=NCCNCCN=C2	> 100 µM	> 100 µM	> 100 µM	> 100 µM	> 100 µM	> 100 µM	> 100 µM	> 100 µM	> 100 µM	> 100 µM	> 100 µM	> 100 µM
O=C1O/C(=C\c2ccc(O)cc2)C(c2ccc(O)c(Cl)c2)=C1Cl	> 100 µM	60.6 µM	> 100 µM	> 100 µM	> 100 µM	> 100 µM	> 100 µM	> 100 µM	77.4 µM	> 100 µM	76.6 µM	> 100 µM
CCCCc1c2c(c(C)c3c1C(=O)OC3)Oc1ccccc1O2	> 68.3 µM	> 100 µM	> 43.2 µM	18.2 µM	38.3 µM	> 43.8 µM	5.8 µM	> 46.5 µM	> 33.7 µM	> 24.5 µM	> 100 µM	14.9 µM
CC1C(c2ccccc2O)c2cc3c(cc2OC1N1CCOCC1)OCO3 (stereo unspecified)	35.8 µM	71.1 µM	80.7 µM	49.2 µM	> 100 µM	> 100 µM	57.9 µM	52.1 µM	72.5 µM	39.1 µM	81 µM	64.7 µM
CCOC(=O)C(CCc1ncnc2c1ncn2Cc1ccccc1)(CCc1ncnc2c1ncn2Cc1ccccc1)C(=O)OCC	> 100 µM	> 100 µM	> 100 µM	> 100 µM	> 100 µM	> 100 µM	> 100 µM	> 100 µM	> 100 µM	> 100 µM	> 100 µM	> 100 µM
O=C1C(S(=O)(=O)c2ccccc2)=C(CS(=O)(=O)c2ccccc2)[C@@H](OCc2ccccc2)[C@@H]1OCc1ccccc1	53.2 µM	32.7 µM	> 100 µM	50.5 µM	76.4 µM	> 100 µM	67 µM	57.3 µM	33.5 µM	36.1 µM	36.3 µM	53.3 µM
Cc1ccc(N=C2C(c3ccccc3)=C(SC3=C(c4ccccc4)C(=Nc4ccc(C)cc4)c4ccccc43)c3ccccc32)cc1	22.9 µM	33.2 µM	> 100 µM	36.3 µM	77.1 µM	> 100 µM	22.9 µM	33.5 µM	> 78.7 µM	> 100 µM	41.6 µM	> 53.5 µM
CC1=NN(c2nc(N)nc(/C(C#N)=C\c3cccc([N+](=O)[O-])c3)n2)C(C)(C)C1	43.8 µM	> 100 µM	> 56.8 µM	19.7 µM	> 65.3 µM	50.8 µM	78.6 µM	> 37 µM	> 29.9 µM	13.1 µM	> 72 µM	38.4 µM
CCCC(=O)NC(Nc1ccc(S(=O)(=O)Nc2ccc(OC)nn2)cc1)(C(F)(F)F)C(F)(F)F	> 100 µM	> 100 µM	> 100 µM	> 100 µM	> 100 µM	> 100 µM	> 100 µM	> 100 µM	> 100 µM	> 100 µM	> 100 µM	> 100 µM
CC1(C)C2CCC(O)(C2)C1N (stereo unspecified)	> 100 µM	> 100 µM	> 100 µM	> 100 µM	> 100 µM	> 100 µM	> 100 µM	> 100 µM	> 100 µM	> 100 µM	> 100 µM	> 100 µM
CCOC(=O)C(Cc1ccc(N(CCCl)CCCl)cc1)NC(=O)CCCN1C(=O)CN=C(c2ccccc2)c2cc(Cl)ccc21 (stereo unspecified)	> 100 µM	8.85 µM	> 100 µM	> 100 µM	14.5 µM	> 64.7 µM	52 µM	> 100 µM	29.9 µM	20.7 µM	> 39 µM	> 100 µM
C1CN2CCNCCN(CCN1)CC2	> 100 µM	> 100 µM	> 100 µM	> 100 µM	> 100 µM	> 100 µM	> 100 µM	> 100 µM	> 100 µM	> 100 µM	> 100 µM	> 100 µM
COc1ccc(/C=C/C(=O)c2ccc(OC(=O)/C=C/c3ccccc3)cc2)cc1	> 100 µM	> 100 µM	> 100 µM	97.8 µM	> 69.7 µM	> 74.2 µM	> 100 µM	> 73.4 µM	> 100 µM	24.7 µM	73.8 µM	> 100 µM
O=C1C=CC2(C=C1)C[C@H](NC(=O)OCc1ccccc1)C(=O)O2	> 69.2 µM	29.9 µM	> 78.5 µM	59.9 µM	32.7 µM	85.3 µM	> 100 µM	> 100 µM	40 µM	17.2 µM	32.5 µM	37.1 µM
COC1CC(O[C@H]2CC[C@@]3(C)[C@@H](CC[C@]4(O)[C@@H]3CC[C@]3(C)[C@@H](C(C)=O)[C@H](OC(=O)CC(C)C)[C@@H](OC(=O)c5ccccc5)[C@@]34O)C2)OC(C)C1OC1CC(OC)C(OC2OC(C)C(O)C(OC)C2O)C(C)O1 (stereo partly specified)	> 25 µM	24.8 µM	> 25 µM	> 25 µM	> 25 µM	> 25 µM	> 25 µM	> 25 µM	> 25 µM	14.5 µM	> 25 µM	> 25 µM
COc1ccc(/C(=N\Nc2ccccn2)c2ccccn2)cc1	10.4 µM	> 24.3 µM	11.1 µM	3.08 µM	> 100 µM	> 100 µM	18.4 µM	> 100 µM	30.2 µM	3.85 µM	9.55 µM	17.1 µM
Cc1cccc2c1c(=O)c1c(O)cc(O)cc1n2C	> 100 µM	> 100 µM	> 100 µM	> 100 µM	> 100 µM	> 100 µM	> 100 µM	> 100 µM	> 100 µM	> 100 µM	> 100 µM	> 100 µM
CC(=O)/C(C=Nc1c(C)n(C)n(C)c1=O)=C(/O)c1ccccc1	> 50 µM	> 50 µM	> 50 µM	> 50 µM	> 50 µM	> 50 µM	> 50 µM	> 50 µM	> 50 µM	> 50 µM	> 50 µM	> 50 µM
